These results are taken from ChEMBL document CHEMBL4312007, “First synthesis of merged hybrids phosphorylated azirino[2,1-b]benzo[e][1,3]oxazine derivatives as anticancer agents” (Eur J Med Chem, 2020).

One assay concerns MRC5. Put plainly: Cytotoxicity against human MRC5 cells assessed as reduction in cell growth incubated for 48 hrs by CCK8 assay. The note with it: MRC5, 48 h. The class given is cell-based.
The subject of a further assay is A549. Put plainly: Antiproliferative activity against human A549 cells assessed as inhibition of cell growth incubated for 48 hrs by CCK8 assay. Format: functional, cell-based. The note with it: A549, 48 h.
A further assay deals with HEK293. Put plainly: Antiproliferative activity against HEK293 cells assessed as inhibition of cell growth incubated for 48 hrs by CCK8 assay. Format: functional, cell-based. The note with it: Homo sapiens, HEK293, 48 h.

Take `COc1cccc2c1O[C@@]1(C)[C@H](P(=O)(c3ccccc3)c3ccccc3)N1[C@H]2O` (relative stereo): the IC50 in the assay on MRC5 was above 50 µM; with A549, 1.3 µM; with HEK293 it was above 50 µM.

Take `C[C@@]12Oc3ccc(F)cc3[C@H](O)N1[C@H]2P(=O)(c1ccccc1)c1ccccc1` (relative stereo): the IC50 with MRC5 is above 50 µM; with A549, 19.6 µM; in the assay on HEK293 it was above 50 µM.

For the compound `CC[C@@]12Oc3ccc(C)cc3[C@H](O)N1[C@H]2P(=O)(c1ccccc1)c1ccccc1` (relative stereo), the results for the concentration for half-maximal inhibition (IC50) in the assay with MRC5, with A549 and in the assay on HEK293 were above 50 µM, 12.9 µM and above 50 µM, respectively.

Consider `Cc1ccc2c(c1)[C@H](O)N1[C@@H](P(=O)(c3ccccc3)c3ccccc3)[C@]1(C)O2` (relative stereo), for which the values for the IC50 with MRC5, in the assay on A549 and with HEK293 were above 50 µM, 3.2 µM and above 50 µM, respectively.

With `CC(C)OP(=O)(OC(C)C)[C@@H]1N2[C@@H](O)c3ccccc3O[C@@]12C` (relative stereo), the IC50 was above 50 µM with MRC5, 3 µM with A549 and above 50 µM in the assay with HEK293.

Turning to `CC[C@@]12Oc3c(OC)cccc3[C@H](O)N1[C@H]2P(=O)(c1ccccc1)c1ccccc1` (relative stereo), the IC50 was above 50 µM in the assay on MRC5, 20.7 µM in the assay on A549 and above 50 µM in the assay on HEK293.

For the compound `CC[C@@]12Oc3ccccc3[C@](C)(O)N1[C@H]2P(=O)(c1ccccc1)c1ccccc1` (relative stereo), the IC50 with MRC5 is above 50 µM; with A549, 3.2 µM; with HEK293, above 50 µM.

Consider `C[C@]1(O)c2ccccc2O[C@@]2(C)[C@H](P(=O)(c3ccccc3)c3ccccc3)N12` (relative stereo), for which the IC50 in the assay with MRC5 was above 50 µM; in the assay with A549 it was 21.1 µM; in the assay with HEK293, above 50 µM.

On to `CC(C)OP(=O)(OC(C)C)[C@@H]1N2[C@@](C)(O)c3ccccc3O[C@@]12C` (relative stereo), for which the IC50 in the assay on MRC5 was above 50 µM; in the assay with A549, 10.3 µM; in the assay on HEK293, above 50 µM.

Consider `CCOP(=O)(OCC)[C@@H]1N2[C@@H](O)c3ccccc3O[C@@]12C` (relative stereo), for which the IC50 with MRC5 is above 50 µM; in the assay with A549 it was 15.8 µM.

Regarding `C[C@@]12Oc3ccccc3[C@H](O)N1[C@H]2P(=O)(c1ccccc1)c1ccccc1` (relative stereo), the IC50 is above 50 µM with MRC5, 2.7 µM with A549 and above 50 µM in the assay with HEK293.

Turning to `CC[C@@]12Oc3ccccc3[C@H](O)N1[C@H]2P(=O)(c1ccccc1)c1ccccc1` (relative stereo), the IC50 with MRC5 is above 50 µM; in the assay with A549, 10.4 µM; with HEK293, above 50 µM.

With `COc1cccc2c1C(=O)c1c(O)c3c(c(O)c1C2=O)C[C@@](O)(C(=O)CO)C[C@@H]3O[C@H]1C[C@H](N)[C@H](O)[C@H](C)O1` [DOXORUBICIN], the IC50 in the assay on MRC5 was above 50 µM; in the assay on HEK293, 5.68 µM.
